These results are taken from patent US20240180845A1, “THIN-SHELL POLYMERIC NANOPARTICLES AND USES THEREOF” (Academia Sinica, priority 2016, published 2024).

Series [1] is described as follows: Encapsulation efficiency and loading of cargoes in thin-shell hollow PLGA nanoparticles. The series is classed as physicochemical.
Details of series [2]: species or system mice. The settings on record: mouse, in vivo. The method, then:
FIG. […], is a depiction of STING agonist-loaded nanoparticles on enhancing lymphatic cytokines while minimizing systemic cytokines. • A: Induction of TNF-α in a mouse dendritic cell line following incubation with cd-GMP nanoparticles and free cd-GMP. • B: Induction of IL-6 in the same mouse dendritic cell line. • C: Induction of IFN-β in the mouse dendritic cell line. • D: Activation of JAWSII upon incubation with equivalent doses of cd-GMP in free molecule form and in nanoparticle formulation. • E: Quantification of lymph node IFN-β 48 hours following footpad injection of free cd-GMP or nanoparticle cd-GMP. • F: Level of systemic TNF-α following footpad injection of free cd-GMP and nanoparticle cd-GMP. Immune potentiation by the cd-GMP nanoparticles was further compared to free cd-GMP in vivo in mice. 48 hours following footpad injections, the draining popliteal lymph nodes were collected for IFN-β quantification. […] In addition, the systemic level of TNF-α, an indicator of reactogenicity, was also monitored following the footpad administration of free cd-GMP and cd-GMP nanoparticles.

`Nc1nc2c(ncn2[C@@H]2O[C@@H]3COP(=O)(O)O[C@H]4[C@@H](O)[C@H](n5cnc6c(=O)[nH]c(N)nc65)O[C@@H]4COP(=O)(O)O[C@H]3[C@H]2O)c(=O)[nH]1` [cyclic di-GMP]: in series [1] (cargo in thin-shell hollow PLGA nanoparticles, listed as cd-GMP), the encapsulation efficiency entry is reported as “about 40%”. Moreover, the “STING agonist molecules per nanoparticle” value in series [1] (hollow particles 100 to 200 nm in diameter) is “approximately 2,000”. The “serum level of TNF-α, indicator of reactogenicity” value in series [2] is on record as “elevated level”.
